ChEMBL document CHEMBL5325458, “Growth factors and their peptide mimetics for treatment of traumatic brain injury” (2023)
Where a SMILES comes first, the peptide text is derived from it.

Legend:
Rattus norvegicus [1] = test: Neuroprotective activity against medial cerebral artery occlusion induced cerebral ischemia rat model assessed decrease in infarct volume at 0.1 mg/kg, ip qd administered 4 hrs post reperfusion and measured after 6 days by TTC staining based assay; format: functional; parameters: scale not given: the % may be the effect or the level left; conditions: time 144 hrs
Rattus norvegicus [2] = test: Neuroprotective activity against medial cerebral artery occlusion induced cerebral ischemia rat model assessed decrease in infarct volume at 1 mg/kg, ip qd administered 4 hrs post reperfusion and measured after 6 days by TTC staining based assay; format: functional; parameters: scale not given: the % may be the effect or the level left; conditions: time 144 hrs
[3] = Induction of TrkA phosphorylation in rat PC12 cells at 3 uM measured after 10 to 30 mins by Western blotting analysis relative to control; format: functional, PC-12; conditions: time 10-30 min
[4] = Neuroprotective activity against chick primary sensory neuron assessed as inhibition of BDNF-mediated neuronal survival; format: functional, Gallus gallus
[5] = target: BDNF/NT-3 growth factors receptor (Homo sapiens) (UniProt Q16620); test: Agonist activity at human TrkB receptor in HEK293 cells assessed as increase in TrkB phosphorylation at 0.001 to 1 uM relative to control; format: cell-based; conditions: filed as agonist, dose 0.001-1 µM
[6] = target: BDNF/NT-3 growth factors receptor (Homo sapiens) (UniProt Q16620); test: Agonist activity at human TrkB receptor in HEK293 cells assessed as increase in ERK phosphorylation at 0.001 to 1 uM relative to control; format: cell-based; conditions: filed as agonist, dose 0.001-1 µM
[7] = target: Hepatocyte growth factor (Homo sapiens) (UniProt P14210); test: Activation of HGF in human A549 cells assessed as increase in Met phosphorylation; format: cell-based
Hepatocyte growth factor (Homo sapiens), sequence (P14210 32-494 limits assumed): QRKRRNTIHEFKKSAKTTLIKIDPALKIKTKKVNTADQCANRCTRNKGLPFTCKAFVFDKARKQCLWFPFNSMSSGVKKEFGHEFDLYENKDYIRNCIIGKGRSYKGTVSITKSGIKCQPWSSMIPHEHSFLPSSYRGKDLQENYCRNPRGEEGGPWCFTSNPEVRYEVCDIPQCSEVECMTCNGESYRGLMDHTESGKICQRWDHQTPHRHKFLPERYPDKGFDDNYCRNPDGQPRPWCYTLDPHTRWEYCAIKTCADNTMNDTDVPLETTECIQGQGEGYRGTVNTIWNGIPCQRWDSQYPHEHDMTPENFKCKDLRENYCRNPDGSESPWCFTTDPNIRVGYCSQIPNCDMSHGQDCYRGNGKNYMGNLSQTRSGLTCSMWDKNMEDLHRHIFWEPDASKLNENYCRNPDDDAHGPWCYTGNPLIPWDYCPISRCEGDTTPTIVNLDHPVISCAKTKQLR
Hepatocyte growth factor (Homo sapiens), sequence (P14210 495-728 limits assumed): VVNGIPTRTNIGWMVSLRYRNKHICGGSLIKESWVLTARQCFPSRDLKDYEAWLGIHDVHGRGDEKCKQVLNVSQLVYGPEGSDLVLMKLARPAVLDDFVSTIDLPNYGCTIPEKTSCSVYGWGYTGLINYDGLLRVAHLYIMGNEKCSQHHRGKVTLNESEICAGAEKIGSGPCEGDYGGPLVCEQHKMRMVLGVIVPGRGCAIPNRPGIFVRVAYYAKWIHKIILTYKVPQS

BDNF/NT-3 growth factors receptor (Homo sapiens), sequence (Q16620 32-822 limits assumed): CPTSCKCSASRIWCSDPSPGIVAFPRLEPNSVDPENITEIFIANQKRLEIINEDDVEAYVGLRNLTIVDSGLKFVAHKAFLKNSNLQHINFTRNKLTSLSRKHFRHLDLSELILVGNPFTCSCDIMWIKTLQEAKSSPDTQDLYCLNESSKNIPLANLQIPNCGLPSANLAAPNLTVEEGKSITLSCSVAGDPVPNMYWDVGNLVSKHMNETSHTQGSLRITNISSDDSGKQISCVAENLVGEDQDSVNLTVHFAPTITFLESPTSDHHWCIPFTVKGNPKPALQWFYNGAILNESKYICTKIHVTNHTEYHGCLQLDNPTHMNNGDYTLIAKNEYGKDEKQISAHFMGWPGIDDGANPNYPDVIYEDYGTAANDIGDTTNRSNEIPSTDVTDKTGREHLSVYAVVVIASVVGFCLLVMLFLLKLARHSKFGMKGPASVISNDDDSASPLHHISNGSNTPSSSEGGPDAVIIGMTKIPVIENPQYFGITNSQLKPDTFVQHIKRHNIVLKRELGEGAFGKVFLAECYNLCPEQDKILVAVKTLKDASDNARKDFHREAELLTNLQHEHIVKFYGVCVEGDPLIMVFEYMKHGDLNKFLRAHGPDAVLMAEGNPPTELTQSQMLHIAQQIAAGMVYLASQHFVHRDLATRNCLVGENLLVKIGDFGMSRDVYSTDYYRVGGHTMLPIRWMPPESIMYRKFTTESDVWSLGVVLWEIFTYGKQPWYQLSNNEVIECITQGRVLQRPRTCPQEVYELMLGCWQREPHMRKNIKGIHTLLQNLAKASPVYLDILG

`NCCCC[C@H](NCCCCCCNC(=O)[C@H](CCCCN)NC(=O)[C@H](CO)NC(=O)CCC(=O)O)C(=O)N[C@@H](CO)C(=O)CCC(=O)O` gave an Activity (Rattus norvegicus [1]) of ~66%.

`NCCCC[C@H](NC(=O)[C@H](Cc1c[nH]cn1)NCCCCCCNC(=O)[C@H](Cc1c[nH]cn1)NC(=O)[C@H](CCCCN)NC(=O)CCCO)C(=O)CCCO` showed an Activity (Rattus norvegicus [2]) of 25%.

Work on `CC[C@H](C)[C@@H]1NC(=O)[C@H](CC(=O)O)NC(=O)[C@H]([C@@H](C)O)NC(=O)[C@H](N)CSSC[C@H](C(=O)N[C@H](C(=O)NCC(=O)N[C@@H](C)C(=O)N[C@H]2CSSC[C@@H](C(=O)O)NC(=O)[C@H](CCC(N)=O)NC(=O)[C@H](CCCCN)NC(=O)CNC(=O)[C@H](CC(=O)O)NC2=O)[C@@H](C)O)NC(=O)[C@H](CCCCN)NC(=O)CNC(=O)[C@H](CCCCN)NC1=O` yielded an Activity [3] of ~75%.

With `CC(C)C[C@@H]1NC(=O)[C@H](CCC(N)=O)NC(=O)CNC(=O)[C@H](CCCCN)NC(=O)[C@H](CO)NC(=O)[C@H](C(C)C)NC(=O)[C@@H]2CCCN2C(=O)[C@H](C(C)C)NC(=O)[C@@H](N)CSSC[C@@H](C(=O)O)NC1=O` (HELM PEPTIDE1{C.V.P.V.S.K.G.Q.L.C}$PEPTIDE1,PEPTIDE1,1:R3-10:R3$$$V2.0) the “inhibition (INH)” value [4] was 50%.

With `CSCC[C@H](NC(=O)[C@H](CCCNC(=N)N)NC(=O)[C@@H]1CCCN1C(=O)[C@H](CC(C)C)NC(=O)[C@H](CO)NC(=O)[C@H](CC(N)=O)NC(=O)CC(N)CC(=O)[C@H](CC(N)=O)NC(=O)[C@H](CO)NC(=O)[C@H](CC(C)C)NC(=O)[C@@H]1CCCN1C(=O)[C@H](CCCNC(=N)N)NC(=O)[C@H](CCSC)NC(=O)[C@@H]1CSSC[C@H](C(N)=O)C(=O)N[C@@H](CC(C)C)C(=O)N[C@@H](CCCNC(=N)N)C(=O)N[C@@H](Cc2c[nH]c3ccccc23)C(=O)N[C@@H](CCCNC(=N)N)C(=O)N[C@@H](CCCNC(=N)N)C(=O)N[C@@H](C(C)C)C(=O)N[C@@H](CCCNC(=N)N)C(=O)N1)C(=O)N[C@H]1CSSC[C@@H](C(=O)N[C@@H](Cc2ccccc2)C(=O)O)NC(=O)[C@H](CC(C)C)NC(=O)[C@H](CCCNC(=N)N)NC(=O)[C@H](Cc2c[nH]c3ccccc23)NC(=O)[C@H](CCCNC(=N)N)NC(=O)[C@H](CCCNC(=N)N)NC(=O)[C@H](C(C)C)NC(=O)[C@H](CCCNC(=N)N)NC1=O` (some centres not stated) (HELM PEPTIDE1{L.R.W.R.R.V.R.C.M.R.P.L.S.[NC(=O)C[C@H](N[*:1])C(=O)CC(N)CC(=O)[*:2]].N.S.L.P.R.M.C.R.V.R.R.W.R.L.C.F}|CHEM1{[NC(=O)[C@@H](CS[*:2])C(=O)[*:1]]}$PEPTIDE1,PEPTIDE1,21:R3-29:R3|PEPTIDE1,CHEM1,1:R1-1:R1|PEPTIDE1,CHEM1,8:R3-1:R2$$$V2.0) the Activity [5] was 50% and the Activity [6] was 50%.

For H-VVNGIPTR-OH, the Activity [7] was 25%.
